The source of these data is patent US6248739A, “Quinolinecarboxamides as antiviral agents” (Pharmacia & Upjohn Company, priority 1999, dated 2001).

In the first test the target is T1, HCMV polymerase (Human cytomegalovirus, UniProt P08546).
T1 construct: made in house; host or cells: recombinant baculovirus-infected SF-9 insect cells
T1 sequence (P08546 whole entry): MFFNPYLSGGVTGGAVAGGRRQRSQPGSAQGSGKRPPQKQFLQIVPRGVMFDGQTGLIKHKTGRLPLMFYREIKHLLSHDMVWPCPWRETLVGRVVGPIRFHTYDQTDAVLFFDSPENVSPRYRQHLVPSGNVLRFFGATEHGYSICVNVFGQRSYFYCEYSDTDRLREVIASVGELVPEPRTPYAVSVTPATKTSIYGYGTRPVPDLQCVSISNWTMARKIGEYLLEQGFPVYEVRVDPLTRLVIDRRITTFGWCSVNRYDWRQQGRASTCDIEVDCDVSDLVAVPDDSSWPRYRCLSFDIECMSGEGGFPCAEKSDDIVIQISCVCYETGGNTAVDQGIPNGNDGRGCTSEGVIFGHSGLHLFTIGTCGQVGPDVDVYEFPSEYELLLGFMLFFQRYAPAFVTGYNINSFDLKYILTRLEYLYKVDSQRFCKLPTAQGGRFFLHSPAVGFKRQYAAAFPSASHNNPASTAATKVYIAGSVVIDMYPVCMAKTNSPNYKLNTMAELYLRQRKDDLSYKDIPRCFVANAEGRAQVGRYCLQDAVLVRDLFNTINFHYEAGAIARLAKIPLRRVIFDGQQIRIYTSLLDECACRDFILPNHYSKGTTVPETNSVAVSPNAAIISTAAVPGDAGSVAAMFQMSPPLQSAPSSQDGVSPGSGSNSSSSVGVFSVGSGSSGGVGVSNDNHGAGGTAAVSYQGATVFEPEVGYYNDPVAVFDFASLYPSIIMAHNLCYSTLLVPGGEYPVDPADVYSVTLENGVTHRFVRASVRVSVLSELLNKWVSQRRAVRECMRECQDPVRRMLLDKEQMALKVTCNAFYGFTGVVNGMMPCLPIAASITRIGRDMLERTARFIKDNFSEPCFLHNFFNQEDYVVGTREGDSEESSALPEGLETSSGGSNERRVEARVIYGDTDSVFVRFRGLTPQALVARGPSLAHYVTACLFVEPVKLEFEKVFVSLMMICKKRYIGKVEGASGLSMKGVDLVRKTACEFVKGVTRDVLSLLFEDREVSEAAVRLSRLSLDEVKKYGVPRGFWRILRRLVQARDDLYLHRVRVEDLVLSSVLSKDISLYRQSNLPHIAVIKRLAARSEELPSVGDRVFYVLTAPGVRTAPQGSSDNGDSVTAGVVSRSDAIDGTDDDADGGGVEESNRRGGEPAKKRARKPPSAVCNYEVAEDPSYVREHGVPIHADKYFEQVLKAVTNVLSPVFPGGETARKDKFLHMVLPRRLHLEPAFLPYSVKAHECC
The experiment in a line: biochemical.
Details: not given
As for the experimental part: The HCMV polymerase assay is performed using a scintillation proximity assay (SPA) as described in several references, such as N. D. Cook, et al., Pharmaceutical Manufacturing International, pages 49-53 (1992); K. Takeuchi, Laboratory Practice, September issue (1992); U.S. Pat. No. 4,568,649 (1986); which are incorporated by reference herein. Reactions are performed in 96-well plates. The assay is conducted in 100 μl volume with 5.4 mM HEPES (pH 7.5), 11.7 mM KCl, 4.5 mM MgCl2, 0.36 mg/ml BSA, and 90 nM ^3 H-dTTP. Assays are run with and without CHAPS, (3-[(3-Cholamidopropyl)dimethylammonio]-1-propane-sulfonate) at a final concentration of 2 mM. HCMV polymerase is diluted in enzyme dilution buffer containing 50% glycerol, 250 mM NaCl, 10 mM HEPES (pH 7.5), 100 μg/ml BSA, and 0.01% sodium azide. The HCMV polymerase, which is expressed in recombinant baculovirus-infected SF-9 cells and purified according to literature procedures, is added at 10% (or 10 μl) of the final reaction volume, i.e., 100 μl. Compounds are diluted in 50% DMSO and 10 μl are added to each well. Control wells contain an equivalent concentration of DMSO. Unless noted otherwise, reactions are initiated via the addition of 6 nM biotinylated poly(dA)-oligo(dT) template/primer to reaction mixtures containing the enzyme, substrate, and compounds of interest. Plates are incubated in a 25 C. or 37 C. H2 O bath and terminated via the addition of 40 μl/reaction of 0.5 M EDTA (pH 8) per well. Reactions are terminated within the time-frame during which substrate incorporation is linear and varied depending upon the enzyme and conditions used, i.e., 30 min. for HCMV polymerase. Ten μl of streptavidin-SPA beads (20 mg/ml in PBS/10% glycerol) are added following termination of the reaction. Plates are incubated 10 min. at 37 C., then equilibrated to room temperature, and counted on a Packard Topcount. Linear regressions are performed and IC50 's are calculated using computer software.
A modified version of the above HCMV polymerase assay is performed as described above, but with the following changes: Compounds are diluted in 100% DMSO until final dilution into assay buffer. In the previous assay, compounds are diluted in 50% DMSO. 4.5 mM dithiotherotol (DTT) is added to the polymerase buffer.
With `O=C(NCc1ccc(Cl)cc1)c1cn(CCN2CCCC2)c2ccc(C#CCO)cc2c1=O` [Example 18, N-(4-Chlorobenzyl)-6-(3-hydroxy-1-propynyl)-1-[2-(1-pyrolidinyl)ethyl]-4-oxo-1,4-dihydro-3-quinolinecarboxamide], the IC50 – broadly, the midpoint of a concentration-inhibition curve – is 2700 nM.
The same measure, in the same setting: the same measure for `CN1CCCC1CCn1cc(C(=O)NCc2ccc(Cl)cc2)c(=O)c2cc(C#CCO)ccc21` (centres unmarked) [Example 16, N-(4-Chlorobenzyl)-1,4-dihydro-6-(3-hydroxy-1-propynyl)-1-[2-(1-methyl-2-pyrrolindinyl)ethyl]-4-oxo3-quinolinecarboxamide]: 2800 nM.

Still in this test, the particulars now being: HCMV polymerase; SPA; modified assay: compounds in 100% DMSO, 4.5 mM DTT.
The compound `O=C(NCc1ccc(Cl)cc1)c1cn(C[S+]([O-])c2ccc(Cl)cc2)c2ccc(CN3CCOCC3)cc2c1=O` (centres unmarked) [Example 102] showed an IC50 of 590 nM.
Still for that read-out and setting: with `CN(CCO)Cc1ccc2c(c1)c(=O)c(C(=O)NCc1ccc(Cl)cc1)cn2C` [Example 45, N-(4-Chlorobenzyl)-6-(((2-hydroxyethyl)(methyl)amino)-methyl)-1-methyl-4-oxo-1,4-dihydro-3-quinolinecarboxamide] the figure was 11900 nM.
`Nn1cc(C(=O)NCc2ccc(Cl)cc2)c(=O)c2cc(C#CCO)ccc21` [Example 118, 1-Amino-N-(4-chlorobenzyl)-6(3-hydroxy-1-propynyl)-4-oxo-1,4-dihydro-3-quinolinecarboxamide]: the IC50 was determined as 1100 nM.
Still for that read-out and setting: with `CCCn1cc(C(=O)NCc2ccc(Cl)cc2)c(=O)c2cc(C#CCO)ccc21` [Example 11, N-(4-Chlorobenzyl)-6-(3-hydroxy-1-propynyl)-4-oxo-1-propyl-1,4-dihydro-3-quinolinecarboxamide] the figure was 1500 nM.
`COC[C@H]1CCCN1n1cc(C(=O)NCc2ccc(Cl)cc2)c(=O)c2cc(CN3CCOCC3)ccc21` [Example 116, N-(4-Chlorobenzyl)-1-[(2R)-2-(methoxymethyl)pyrrolidinyl]-6-(4-morpholinylmethyl)-4-oxo-1,4-dihydro-3-quinolinecarboxamide]: inhibition was half-maximal at 14000 nM (IC50).
The same measure, in the same setting: the same measure for `COCCOCCn1cc(C(=O)NCc2ccc(Cl)cc2)c(=O)c2cc(CN(C)CC(O)c3ccccc3)ccc21` (centres unmarked) [Example 89, N-(4-Chlorobenzyl)-6-{[(2-hydroxy-2-phenylethyl)(methyl)amino]methyl}-1-[2-(2-methoxyethoxy)ethyl]-4-oxo-1,4-dihydro-3-quinoline-carboxamide]: 6700 nM.
Same read-out and setting: the same measure for `COCCOCCn1cc(C(=O)NCc2ccc(Cl)cc2)c(=O)c2cc(CN(C)CC#N)ccc21` [Example 86, N-(4-Chlorobenzyl)-6-{[(cyanomethyl)(methyl)amino]methyl}-1-[2-(2-methoxyethoxy)ethyl]-4-oxo-1,4-dihydro-3-quinolinecarboxamide]: 2500 nM; for `COCCOCCn1cc(C(=O)NCc2ccc(Cl)cc2)c(=O)c2cc(CN3CCOCC3)ccc21` [Example 84]: 1200 nM.
As for `CC(C)(C)n1cc(C(=O)NCc2ccc(Cl)cc2)c(=O)c2cc(C#CCO)ccc21` [Example 39], inhibition was half-maximal at 2200 nM (IC50).
The same measure, in the same setting: with `O=C(NCc1ccc(Cl)cc1)c1cn(CS(=O)(=O)c2ccccc2)c2ccc(CN3CCOCC3)cc2c1=O` [Example 82, N-(4-Chlorobenzyl)-6-(4-morpholinylmethyl)-4-oxo-1-[(phenylsulfonyl)methyl]-1,4-dihydro-3-quinolinecarboxamide] the figure was 530 nM; with `CC(C)(C)OCCOCCn1cc(C(=O)NCc2ccc(Cl)cc2)c(=O)c2cc(CN3CCOCC3)ccc21` [Example 91, 1-{2-[2-(tert-Butoxy)ethoxy]ethyl}-N-(4-chlorobenzyl)-6-(4-morpholinylmethyl)-4-oxo-1,4-dihydro-3-quinolinecarboxamide], 2100 nM.
Compound `O=C(NCc1ccc(Cl)cc1)c1cn(CS(=O)(=O)c2ccc(Cl)cc2)c2ccc(CN3CCOCC3)cc2c1=O` [Example 103, N-(4-Chlorobenzyl)-1-([(4-chlorophenyl)sulfonyl]methyl)-6-(4-morpholinylmethyl)-4-oxo-1,4-dihydro-3-quinolinecarboxamide] returned an IC50 of 830 nM.
Still for that read-out and setting: with `CSCn1cc(C(=O)NCc2ccc(Cl)cc2)c(=O)c2cc(CN3CCOCC3)ccc21` [Example 73] the figure was 1100 nM.
Same read-out and setting: with `Cn1cc(C(=O)NCc2ccc(Cl)cc2)c(=O)c2cc(/C=C\CO)cc(F)c21` [Example 9, N-(4-Chlorobenzyl)-8-fluoro-6-[(Z)-3-hydroxy-1-propenyl)-1-methyl-4-oxo-1,4-dihydro-3-quinolinecarboxamide] the figure was below 780 nM; with `O=C(NCc1ccc(Cl)cc1)c1cn(C2CCNCC2)c2ccc(CN3CCOCC3)cc2c1=O` [Example 110, N-(4-Chlorobenzyl)-6-(4-morpholinylmethyl)-4-oxo-1-(4-piperidinyl)-1,4-dihydro-3-quinolinecarboxamide], 670 nM.
The compound `Cn1cc(C(=O)NCc2ccc(Cl)cc2)c(=O)c2cc(C#CCO)cc(F)c21` [Example 8, N-(4-Chlorobenzyl)-8-fluoro-6-(3-hydroxy-1-propynyl)-1-methyl-4-oxo-1,4-dihydro-3-quinolinecarboxamide] had an IC50 of 1000 nM.
`COCCOCCn1cc(C(=O)NCc2ccc(Cl)cc2)c(=O)c2cc(CCCO)ccc21` [Example 83, N-(4-chlorobenzyl)-6-(3-hydroxypropyl)-1-[2-(2-methoxyethoxy)ethyl]-4-oxo-1,4-dihydro-3-quinolinecarboxamide] came in with an IC50 of 600 nM.
With `CC(C)(C)OC(=O)Cn1cc(C(=O)NCc2ccc(Cl)cc2)c(=O)c2cc(C#CCO)ccc21` [Example 28, tert-Butyl 2-[3-{[(4-chlorobenzyl)amino]carbonyl}-6-(3-hydroxy-1-propynyl)-4-oxo-1(4H)-quinolinyl]acetate], the IC50 was determined as 1800 nM.
The same measure, in the same setting: with `Cn1cc(C(=O)NCc2ccc(Cl)cc2)c(=O)c2cc(CN=[N+]=[N-])ccc21` [Example 51, 6-(Azidomethyl)-N-(4-chlorobenzyl)-1-methyl-4-oxo-1,4-dihydro-3-quinolinecarboxamide] the figure was 1300 nM; with `O=C(NCc1ccc(Cl)cc1)c1cn(N2CCCC2)c2ccc(CN3CCOCC3)cc2c1=O` [Example 115, N-(4-Chlorobenzyl)-6-(4-morpholinylmethyl)-4-oxo-1-(1-pyrrolidinyl)-1,4-dihydro-3-quinolinecarboxamide], 620 nM.
On the same count and under the same terms, the same measure for `CN(C)CCCn1cc(C(=O)NCc2ccc(Cl)cc2)c(=O)c2cc(C#CCO)ccc21` [Example 20, N-(4-Chlorobenzyl)-1-[3-(dimethylamino)propyl]-6-(3-hydroxy-1-propynyl)-4-oxo-1,4-dihydro-3-quinolinecarboxamide]: 3800 nM; for `CN(C)n1cc(C(=O)NCc2ccc(Cl)cc2)c(=O)c2ccccc21` [Example 121, N-(4-Chlorobenzyl)-1-(dimethylamino)-4-oxo-1,4-dihydro-3-quinolinecarboxamide]: 3900 nM; for `O=C(NCc1ccc(Cl)cc1)c1cn(CCCS(=O)(=O)CCCO)c2ccc(CN3CCOCC3)cc2c1=O` [Example 71, N-(4-Chlorobenzyl)-1-(3-[(3-hydroxypropyl)sulfonyl]propyl)-6-(4-morpholinylmethyl)-4-oxo-1,4-dihydro-3-quinolinecarboxamide]: 800 nM.
Still for that read-out and setting: the same measure for `CN(C)n1cc(C(=O)NCc2ccc(Cl)cc2)c(=O)c2cc(CN3CCOCC3)ccc21` [Example 117, N-(4-Chlorobenzyl)-1-(dimethylamino)-6-(4-morpholinylmethyl)-4-oxo-1,4-dihydro-3-quinolinecarboxamide]: 1500 nM.
